Literature values, collected in patent US12390412B2, “Hydroglycolic cosmetic composition with a high active content” (L'OREAL, priority 2020, dated 2025).

Settings: pH of the composition about 3.0 to about 4.0, more particularly about 3.5

O=C1O[C@H]([C@@H](O)CO)C(O)=C1O [ascorbic acid]
ascorbic acid remains in a protonated, uncharged form: greater than 82%
